According to patent US10561638B2, “Methods for treating dependence” (Biotie Therapies, Inc., priority 2007, dated 2020):

Legend:
[1] = tested on: tissue norepinephrine and dopamine levels; assay: Tissue catecholamines in Sprague-Dawley rats after single oral dose; format: in vivo
Protocol: In SHRs there were significant changes in the dopamine/norepinephrine ratio in the mesenteric artery at doses of 0.3 mg/kg, in the left ventricle at 3.0 mg/kg, and in the cerebral cortex at 10 mg/kg. […] In a second dose-response study in SHRs, three doses were administered 12 hours apart at either 3.0, 10, 30, or 100 mg/kg, and tissue was harvested six hours after the third dose. Nepicastat caused a significant dose dependent decrease in norepinephrine (10 mg/kg) and increase in dopamine (3.0 mg/kg) and the dopamine/norepinephrine ratio (3.0 mg/kg) in the left ventricle and mesenteric artery. The effects of nepicastat on dopamine and norepinephrine concentrations, and the dopamine/norepinephrine ratio in the cerebral cortex were significant only at 30 and 100 mg/kg.

[2] = tested on: tissue norepinephrine and dopamine levels; assay: Tissue catecholamines in beagle dogs, 10, 30, 60 mg/kg/day for 4.5 days; format: in vivo
Protocol: This study was performed to determine the dopamine and norepinephrine concentrations in kidney medulla and kidney cortex from dogs dosed with nepicastat. Adult male beagle dogs were randomly assigned to four groups of 8 dogs per group and dosed by oral administration with nepicastat. Nepicastat was delivered in doses of 5, 15 and 30 mg/kg placed in single capsules. Vehicle was an empty capsule. Each dog received 2 doses daily, morning and afternoon (8-10 hours apart) for four days. On the fifth day, each dog received a single dose in the morning and the dogs were euthanized six hours after the last dose. Samples of kidney medulla and kidney cortex were rapidly harvested, weighed, placed in cold 0.4 M perchloric acid, frozen in liquid nitrogen and stored at −70° C.
To quantitate concentrations of norepinephrine (NE) and dopamine (D), each tissue was homogenized by brief sonication in 0.4 M perchloric acid. After sonication, the homogenates were centrifuged at 13,000 rpm in a microfuge for 30 minutes at 4° C. An aliquot of each supernatant was removed and spiked with 3,4-dihydroxybenzylamine (DHBA) as internal standard. The extract from each sample was subjected to HPLC separation using electrochemical detection. The method has a quantitation limit of 2.0 ng/mL and a linear range of 2.0 ng/mL to 400 ng/mL for each analyte.
Thirty-two male beagle dogs, weighing 10-12 kg, were randomly assigned to one of the following 4 treatment groups (n=8 per group): nepicastat at 0 mg/kg/day (placebo), 10 mg/kg/day (5 mg/kg b.i.d.), 30 mg/kg (15 mg/kg b.i.d.), or 60 mg/kg/day (30 mg/kg b.i.d.). Dog numbers 1-16 were assigned as dose group A and dog numbers 17-32 as dose group B. The terminal surgery for tissue harvest was performed over 2 days with 16 animals studied per day. Two or 3 days before the first compound administration each dog was weighed and skin regions overlying both cephalic, saphenous and jugular veins were shaved. Dosing consisted of oral administration of one capsule with the second given 8-10 hr later. Dogs were dosed as scheduled on days 1-3. On day 4, prior to the AM dose, 3 ml of blood were obtained from a jugular vein for determination of baseline plasma compound levels. The dog was then administered the AM dose, and at 1, 2, 4 and 8 hr following the dose additional 3 ml blood samples were collected for determination of plasma compound levels. Blood samples were put into tubes containing heparin, centrifuged at 4° C. and stored at −20° C. until analysis. The PM dose was then administered as scheduled. The AM dose was administered as scheduled on the days of surgery. Approximately 6 hr after the AM dose, a final 3 ml blood sample was taken from the jugular vein for determination of plasma compound levels. The dog was then anesthetized with pentobarbital Na (˜40 mg/kg), given i.v. in a cephalic or saphenous vein, and delivered to the necropsy room where an additional dose of pentobarbital Na was given (˜80 mg/kg, iv). The left ventricle, renal artery, kidney, renal medulla, renal cortex and cerebral cortex were then rapidly harvested, weighed, put into 2 ml iced 0.4M perchloric acid, frozen in liquid nitrogen and stored at −70° C. until analysis for catecholamines by HPLC using electrochemical detection. All tissue samples were divided into 2 portions, the second of which were immediately frozen in liquid nitrogen and stored at −70° C. for determination of tissue compound levels. A third transmural sample taken from the left ventricle was immediately frozen in liquid nitrogen and stored at −70° C. for use in receptor binding studies.
Ventricles were homogenized in 50 mM Tris-HCl, 5 mM Na2EDTA buffer (pH 7.4 at 4° C.) using a Polytron P-10 tissue disrupter (setting 10, 2×15 second bursts). Homogenates were centrifuged at 500×g for 10 minutes and the supernatants stored on ice. The pellets were washed by resuspension and centrifugation at 500×g and the supernatants combined. […]

[3] = tested on: SHRs; assay: 21 day daily treatment of SHRs, tail cuff and direct blood pressure; format: in vivo, spontaneously hypertensive rats
[4] = renal medulla, 60 mg/kg/day, marginal (0.05<p<0.10)

For `Cl.NCc1c[nH]c(=S)n1[C@H]1CCc2c(F)cc(F)cc2C1` [nepicastat, (S)-5-Aminomethyl-1-(5,7-difluoro-1,2,3,4-tetrahydronaphth-2-yl)-2,3-dihydro-2-thioxo-1H-imidazole hydrochloride], the “dose with significant increase in dopamine/norepinephrine ratio” value ([1]; cerebral cortex, only at this dose) was 100 mg/kg, the “dose with significant increase in dopamine/norepinephrine ratio” value ([1]; left ventricle, 6 h after single oral dose) was 1.0 mg/kg and the “dose with significant increase in dopamine/norepinephrine ratio” value ([1]; mesenteric artery, 6 h after single oral dose) was 3.0 mg/kg. The increase in dopamine ([2]; cerebral cortex, 10 mg/kg/day) was 632%, the “increase in dopamine/norepinephrine ratio” value ([2]; cerebral cortex, 10 mg/kg/day) was 531% and the decrease in norepinephrine ([2]; cerebral cortex, 30 mg/kg/day) was 63%. For the same compound, the “increase in dopamine/norepinephrine ratio” value ([2]; cerebral cortex, 30 mg/kg/day) was 86%, the increase in dopamine ([2]; cerebral cortex, 30 mg/kg/day, marginal (0.05<p<0.10)) was 174% and the increase in dopamine ([2]; cerebral cortex, 60 mg/kg/day) was 411%. For the same compound, the “increase in dopamine/norepinephrine ratio” value ([2]; cerebral cortex, 60 mg/kg/day) was 612%, the “norepinephrine levels vs placebo” value ([2]; cerebral cortex, 10 and 60 mg/kg/day) was “not significantly (p>0.01) affected” and the “dose at which the plateau in DBH inhibition response begins” value ([2]; heart, renal artery and kidney) was 10 mg/kg/day. The decrease in norepinephrine ([2]; left ventricle, 10 mg/kg/day) was 85%, the “increase in dopamine/norepinephrine ratio” value ([2]; left ventricle, 10 mg/kg/day) was 852% and the decrease in norepinephrine ([2]; left ventricle, 30 mg/kg/day) was 58%. The “increase in dopamine/norepinephrine ratio” value ([2]; left ventricle, 30 mg/kg/day) was 279%, the decrease in norepinephrine ([2]; left ventricle, 60 mg/kg/day) was 79% and the “increase in dopamine/norepinephrine ratio” value ([2]; left ventricle, 60 mg/kg/day) was 607%. The “dopamine levels vs placebo” value ([2]; left ventricle, 10, 30 and 60 mg/kg/day) was “No significant changes”, the decrease in norepinephrine ([2]; renal artery, 10 mg/kg/day) was 86% and the increase in dopamine ([2]; renal artery, 10 mg/kg/day) was 180%. For the same compound, the “increase in dopamine/norepinephrine ratio” value ([2]; renal artery, 10 mg/kg/day) was 1711%, the decrease in norepinephrine ([2]; renal artery, 30 mg/kg/day) was 81% and the increase in dopamine ([2]; renal artery, 30 mg/kg/day) was 273%. For the same compound, the “increase in dopamine/norepinephrine ratio” value ([2]; renal artery, 30 mg/kg/day) was 1767%, the decrease in norepinephrine ([2]; renal artery, 60 mg/kg/day) was 85% and the increase in dopamine ([2]; renal artery, 60 mg/kg/day) was 268%. The “increase in dopamine/norepinephrine ratio” value ([2]; renal artery, 60 mg/kg/day) was 1944%, the decrease in norepinephrine ([2]; renal cortex, 10 mg/kg/day) was 86% and the increase in dopamine ([2]; renal cortex, 10 mg/kg/day) was 156%. The “increase in dopamine/norepinephrine ratio” value ([2]; renal cortex, 10 mg/kg/day) was 1653%, the decrease in norepinephrine ([2]; renal cortex, 30 mg/kg/day) was 66% and the increase in dopamine ([2]; renal cortex, 30 mg/kg/day) was 502%. The “increase in dopamine/norepinephrine ratio” value ([2]; renal cortex, 30 mg/kg/day) was 1440%, the decrease in norepinephrine ([2]; renal cortex, 60 mg/kg/day) was 85% and the increase in dopamine ([2]; renal cortex, 60 mg/kg/day) was 208%. The “increase in dopamine/norepinephrine ratio” value ([2]; renal cortex, 60 mg/kg/day) was 1693%, the decrease in norepinephrine ([2]; renal medulla, 10 mg/kg/day) was 72% and the “increase in dopamine/norepinephrine ratio” value ([2]; renal medulla, 10 mg/kg/day) was 555%. The increase in dopamine ([2]; renal medulla, 10 mg/kg/day, marginal (0.05<p<0.10)) was 150%, the increase in dopamine ([2]; renal medulla, 30 mg/kg/day) was 522% and the “increase in dopamine/norepinephrine ratio” value ([2]; renal medulla, 30 mg/kg/day) was 636%. The “increase in dopamine/norepinephrine ratio” value ([2]; renal medulla, 60 mg/kg/day) was 677%, the decrease in norepinephrine [2, 4] was 69% and the increase in dopamine [2, 4] was 156%. The “blood pressure measured directly via arterial cannulae, restrained” value ([3]; 10 mg/kg p.o.) was “significant antihypertensive effect” and the “heart rate and systolic blood pressure by tail cuff” value ([3]; 1 and 10 mg/kg p.o., 21 days) was “did not alter heart rate, or systolic blood pressure”.
